“Also recorded” adds a separate entry of the source.
Legend:
ruminal microbiota [1] = assay: Chemical degradation rate of compound in ruminal microbial fermentation (UPLC-HRMS); conditions: 100 μM
Description: The generation fermentation experiments were performed in anaerobic tubes containing 5 mL of an anaerobic medium, and in total, six generations of fermentation were performed. Altogether 54 tubes were prepared with nine tubes for each generation of fermentation. […] For the AHA treated group, the AHA working solution was prepared by diluting 3.76 mg AHA with 10 mL of methanol (5000 μM AHA). […] For the control group, the working solution contained only the solvent (methanol). All the working solutions were filtered by 0.22 μm of a membrane filter (Millipore Express PES Membrane, MILLEX GP). For each group, 100 µL of the working solution was added to each tube to mix with the anaerobic medium. […] Before the inoculation of each tube in each generation with fresh rumen fluid, 100 µL of the anaerobic urea solution was extracted from the anaerobic bottle using a syringe and filtered through 0.22 μm membrane filters, and then injected to the anaerobic tube to make the urea concentration at 16.65 mM in the tube. […] The NH4-N and Urea-N concentration was measured by the Berthelot alkaline phenol-hypochlorite method and the diacetyl monoxime method kit (Nanjing Jiancheng Co., Nanjing, China) following the manufacturer’s protocol. […]

ruminal microbiota [2] = assay: Ruminal microbial fermentation in vitro (six generations): urea and NH3-N; format: cell-based, rumen fluid of Chinese Holstein dairy cows; conditions: 100 μM compound, 24 h, p < 0.01
Description: Seven solutions were prepared for the anaerobic media as solution A (3 g/L K2HPO4), solution B (0.6 g/L CaCl2, 3 g/L K2HPO4, 6 g/L NaCl, 0.6 g/L MgSO4·7H2O), solution C (6 g/L K2HPO4), solution D (1.6 g/L CaCl2·2H2O, 6 g/L K2HPO4, 12 g/L NaCl, 2.5 g/L MgSO4·7H2O), trace element solution (300 mg/L H3BO3, 100 mg/L ZnSO4·7H2O, 30 mg/L MnCl2·4H2O, 20 mg/L CoCl2·6H2O, 30 mg/L Na2MoO4·2H2O, 10 mg/L Na2SeO3, 20 mg/L NiCl2, 10 mg/L CuCl2·2H2O, 150 mg/L FeCl2·4H2O), volatile fatty acid (VFA) mixed solution (17 mL acetic acid, 6 mL propionic acid, 4 mL butyric acid, 1 mL n-valeric acid, 1 mL isovaleric acid, and 1 mL isobutyric acid), and hemin solution, prepared by diluting 50 mg of Haemon in NaOH (1 N solution) and made up to 100 mL with distilled water. Each liter of anaerobic media contained 30 mL of autoclaved rumen fluid supernatant, 0.5 g of glucose, 0.5 g of soluble starch, 0.5 g of cellobiose, 0.5 g of maltose, 0.5 g of […], 0.5 g of tripticase, 0.5 g of yeast extract, 8 g of NaHCO3, 0.1 mL of trace elements solution, 15 mL solution A, 15 mL solution B, 0.5 g of cysteine hydrochloride, 10 mL of hemin solution, 3.1 mL of VFA mixed solution, and 1 mg resazurin. The anaerobic urea solution was prepared using an anaerobic glove box, by dissolving 2.5 g of urea in a 50 mL anaerobic diluent. This diluent consisted of 3.8 mL of salt solution C, 3.8 mL of salt solution D, 5 mL of 8% sodium Na2CO3, 1 mL of 0.1% resazurin, 0.5 g of cysteine hydrochloride dissolved in distilled water and made up to 1000 mL and distributed into 50 mL anaerobic bottles. All the anaerobic bottles were sterilized by autoclave. Prior to the inoculation, fresh frozen rumen fluid samples, pretreated as described previously, were removed from the freezer, thawed, homogenized, and used immediately. […] Chromatographic gradients were referenced to the paper.

Caco-2 cells = assay: CCK8 colorimetric cytotoxicity assay; format: cell-based; conditions: concentration below 100 μM, 24 h, p > 0.05
Description: A standard CCK8 colorimetric assay was employed for the evaluation of cytotoxic activity of compound 6238-0047 using 96-well flat bottomed microplates. Dulbecco’s Modified Eagle Medium (GIBCO) with 10% FBS (fetal bovine serum, FBS, Gibco) and 1% NEAA was used for the culturing of Caco-2 cells (ATCC, Manassas, VA, USA), and the medium was supplemented with 100 μg/mL of streptomycin and 100 IU/mL of penicillin. The medium was kept in 5% CO2 and incubated at 37 °C. The exponentially grown cells were harvested, counted using a hemocytometer and diluted with the medium. The cell culture was diluted to a density of 1 × 10^5 cells/mL and transferred into a 96-well plate with 135 μL or […]. The medium was incubated for 24 h for cell attachment. Following this, 15 μL of compounds with different final concentrations of 1, 10, 25, 50, and 100 μM in the experimental group and fresh medium as a control group, were added to a plate with five replicates for each. After 24 h of incubation at 37 °C and kept in 5% CO2, 15 μL of CCK8 was added to each well and after 2 h the absorbance was measured at 450 nm using a microplate reader. The formula for calculating the relative cell viability was as follows:Relative cell viability (%) = absorbance of experimental group/absorbance of control group × 100%

**Q.** Which results are given for `COc1ccc(-c2ccc(CCC(=O)O)n2NC(N)=O)cc1` [6238-0047, 3-[1-[(aminocarbonyl)amino]-5-(4-methoxyphenyl)-1H-pyrrol-2-yl] propanoic acid]?
**A.** 24 h degradation rate (ruminal microbiota [1]; first-generation ruminal microbial culture): 3.32%; 24 h degradation rate (ruminal microbiota [1]; sixth generation ruminal microbial culture): 16.00%; Amount of urea degradation vs control group (ruminal microbiota [2]; 16.65 mM urea): significantly lowered the amount of urea degradation; NH3-N concentration / production vs control group (ruminal microbiota [2]): significantly lower than the control group; also recorded: consistently lower than the control group; Relative cell viability of Caco-2 cell culture (Caco-2 cells): no significant adverse effect; also recorded: no significant influence; also recorded: no cytotoxic effect

From publication PMC7503308, “A Novel Urease Inhibitor of Ruminal Microbiota Screened through Molecular Docking” (International Journal of Molecular Sciences, 2020)
